# Assays:
# [1] = test system: CXCL10 production from monocytes; assay: CXCL10 production from interferon-stimulated monocytes, intracellular staining on flow cytometry; assay type: cell-based, human
# Protocol: (§1) Cells are plated at 3×10^5 cells/well for PBMC and isolated monocyte experiments, and 1×10^5 cell/well for isolated neutrophil experiments, in 96-well plates. Cells are cultured in complete RPMI (RPMI 1640, 10% FBS, 1×PSF). For cross-linking experiments 10 μg/mL anti-SLAMF7 mAb or SLAMF7-Fc is added to a sterile, high-binding 96-well cell culture plate O/N at 4° C. For all in vitro flow cytometry experiments, cells are cultured in the presence of stimuli for 17-18 h. In the monocyte maturation assay as shown in FIG. 18E the cells are stimulated with only 25 IU/mL IFNα for exactly 24 h. Small molecule inhibitors are added 45-60 min before IFNα for all relevant experiments. For experiments involving intracellular staining, BD GolgiPlug is added for the final 5 h. NK92 cells are purchased from ATCC and cultured as indicated by manufacturer.
# (§2) Cells are prepared and stained as previously described. Intracellular staining is performed using the BD fixation/permeabilization kit (BD Biosciences) per manufacturer's instructions. Transcription factor staining is performed with the Transcription Factor Buffer Set (BD Pharmingen) per manufacturer's instructions. Samples are analyzed on either a BD LSR II or BD FACSCanto. LIVE/DEAD staining with Aqua fixable stain (ThermoFisher) is included during initial experiments and cell viability is verified to be greater than 90%.
# [2] = test system: SLAMF7 expression on monocytes; assay: SLAMF7 expression on PBMCs and monocytes by flow cytometry; assay type: cell-based, human
# Protocol: as §1, §2
# [3] = test system: isolated monocytes; assay: qRT-PCR of chemokine and ISG mRNA in isolated monocytes; assay type: cell-based, human; details: IFNα and SLAMF7 cross-linking; SHP1/2 inhibitor 10 μM
# Protocol: Isolated monocytes are plated in 96-well plates at 3×10^5 cells/well and stimulated as indicated for 4 h. Cells are harvested and placed into Trizol (ThermoFisher) and RNA is isolated per manufacturer's instructions. RNA is reverse transcribed with SuperStrand First Strand Synthesis Kit III (Invitrogen) per manufacturer's instructions and analyzed on a QuantStudio7 system (ThermoFisher). GAPDH is used as a housekeeping gene and the ΔΔCt method is used for analysis.
# [4] = biological target: T1, CXCL10 (Homo sapiens, UniProt P02778); details: monoclonal antibodies to reduce CXCL10; cited from earlier work
# T1 sequence (P02778 22-98): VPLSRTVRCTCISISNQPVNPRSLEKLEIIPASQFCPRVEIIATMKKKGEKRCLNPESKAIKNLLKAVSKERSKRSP
# [5] = test system: SLAMF7 expression on neutrophils; assay: SLAMF7 expression on neutrophils by flow cytometry; assay type: cell-based, human; details: presence and absence of IFNα stimulation
# Protocol: as §1
# Cells are prepared and stained as previously described. Intracellular staining is performed using the BD fixation/permeabilization kit (BD Biosciences) per manufacturer's instructions. […] Samples are analyzed on either a BD LSR II or BD FACSCanto. […]
# (§3) CD14^+ monocytes are isolated from PBMCs via positive selection using CD14 Microbeads (Miltenyi Biotec) per manufacturer's instructions. Purity is consistently greater than 90% as assessed by flow cytometry. […] Purity is consistently greater than 98% as assessed by flow cytometry.
# [6] = test system: isolated neutrophils; assay: Cytokine/chemokine release from isolated neutrophils, BioPlex assay; assay type: cell-based, human
# Protocol: as §1
# For analysis of cell culture, supernatant and plasma samples 80 μL of media or plasma is used, undiluted, and the assay is run per manufacturer's instructions (Bio-Rad, Hercules, Calif.) via Luminex 100 technology. […]
# as §3
# [7] = SLAMF7-stimulated cells, IFNα, 100 nM
molecule,measurement,setting,value
CC(C)CCC[C@@H](C)[C@H]1CC[C@H]2[C@@H]3CCC4C[C@H](N)CC[C@]4(C)[C@H]3CC[C@]12C (some centres unmarked) [3AC],recovery of CXCL10 expression,"[1]; monocytes stimulated with IFNα and SLAMF7 cross-linking, pre-treatment 5 μM",does not result in recovery of CXCL10 expression
CC(C)C[C@H](NC(=O)[C@H](Cc1ccccc1)NC(=O)c1cnccn1)B(O)O [Bortezomib],CXCL10 production,[1]; [7],further decreases CXCL10 production
same,recovery of CXCL10 expression,[1]; [7],does not result in recovery of CXCL10 expression
same,SLAMF7 expression on monocytes,"[2]; with IFNα, 100 nM",acts synergistically with IFNα to upregulate SLAMF7 expression
CC(C)(C)C(=O)Nc1ccc2c(c1)C(=O)C(=O)c1ccccc1-2 [CAS 345630-40-2],rescue of CXCL10 production,"[1]; IFNα and SLAMF7 cross-linking, pre-treatment 1 μM",fails to rescue CXCL10 production
O=C(/C=C/c1ccc(CN(CCO)CCc2c[nH]c3ccccc23)cc1)NO [Dacinostat],IFNα-mediated SLAMF7 up-regulation,"[2]; classical monocytes, IFNα plus HDACi",prevents IFNα-mediated SLAMF7 up-regulation
O=S(=O)(O)c1ccc2cc(N=Nc3cc(S(=O)(=O)O)c4cccnc4c3O)ccc2c1 [NSC87877],recovery of CXCL10 expression,"[1]; monocytes stimulated with IFNα and SLAMF7 cross-linking, pre-treatment 10 μM",does not result in recovery of CXCL10 expression
same,involvement of SHP1/2 in alpha chemokine inhibition,[3],not involved in alpha chemokine inhibition
BMS-936557: anti-CXCL10 monoclonal antibody (Brisol-Myers Squibb),anti-inflammatory activity,[4],limited anti-inflammatory activity
IFNα,SLAMF7 response of CD14+ monocytes,"[2]; CD14+ monocytes, IFNα 100 IU/mL",most robust SLAMF7 response
same,percent of SLAMF7+ PBMCs,"[2]; total PBMCs from HIV+ patients, IFNα 100 IU/mL","minor, but significant increase"
same,SLAMF7 expression on neutrophils,[5],unable to upregulate SLAMF7
same,CXCL10 release from neutrophils,"[6]; IFNα by itself, neutrophils from HCs and HIV+ patients",can induce CXCL10 release
lipopolysaccharide [LPS],CXCL10 release from neutrophils,[6]; LPS added to IFNα,enhanced

# — patent publication US20190085334A1, “TREATMENT OF NEUROINFLAMMATION IN NEUROLOGICAL DISORDERS” (Board of Trustees of Michigan State University, priority 2017, published 2019)
